Data published in patent US10730848B2 (priority 2013, dated 2020).
Entries after “also recorded” stand apart in the source; their conditions may differ. Like-named read-outs stand apart in the source and are kept apart here.

Legend:
[1] = test system: anthrax lethal toxin (LT); assay: cells; format: cell-based, murine; conditions: for IC50: Mus musculus
[2] = test system: anthrax lethal toxin (LT); format: cell-based, mice
MEK2 = format: cell-based, murine
PA+LFnDTA = format: cell-based
caspase-1 = format: cell-based, mice
PA = format: cell-based
Diphtheria toxin = format: cell-based
[3] = test system: exotoxin A from Pseudomonas aeruginosa (ExoA); format: cell-based
[4] = test system: VSV-pseudotyped lentivirus; format: cell-based
[5] = test system: Nipah-pseudotyped lentivirus; format: cell-based
[6] = test system: GFP-expressing Armstrong variant of LCMV; format: cell-based
influenza A/WSN/33 virus = format: cell-based
acidic compartments = format: cell-based
EGFR = format: cell-based; conditions: 15-30 min
EGF = format: cell-based
transferrin (Tf) = format: cell-based
THP-1 cells = format: cell-based, human
F. tularensis LVS = format: cell-based
LT = conditions: rat, in vivo

## Cc1cccc(C)c1NC(=O)N/N=C/c1ccc(Br)cc1 [Compound 1, N^1-(4-BROMOBENZYLIDENE)-N^4-(2,6-DIMETHYLPHENYL)SEMICARBAZONE]
[1]
  rescued viability, of unintoxicated controls: up to 100%
  time after LT at which addition still completely protects cells from killing: up to 15 minutes
[1]; RAW264.7
  IC50: 1.4 µM
[1]; RAW264.7, read-out: IC50 (In uM)
  IC50: 1.27 µM
[1]; RAW264.7, read-out: IC50, inhibition of LT-induced cell death
  IC50: 1.4 µM
[1]; RAW264.7, read-out: IC50 in cell-based LT intoxication experiments
  IC50: 1.4 µM
[2]
  protection of BMDMs from killing by LT: protected
MEK2
  LT-mediated cleavage of MEK2: inhibits LT-mediated cleavage of MEK-2; also recorded: completely abrogated
PA+LFnDTA
  protection from PA+LFnDTA: Protects Cells from PA+LFnDTA; also recorded: resistant
caspase-1
  LT-mediated caspase-1 activation: inhibits LT-mediated caspase-1 activation; also recorded: active caspase-1 was not detected
PA
  binding of PA83 to cells or proteolytic processing to PA63: did not block
Diphtheria toxin
  protection of HeLa cells from DT: effectively protected
[3]
  protection of HeLa cells from ExoA: effectively protected
[4]
  infection by VSV-G pseudotyped virus: Inhibits Infection by Low pH-dependent VSV-pseudotyped lentivirus; also recorded: effectively inhibited; also recorded: neutralized
[5]
  infection by Nipah-pseudotyped lentivirus: Does Not Inhibit Infection; also recorded: did not inhibit
[6]
  acute LCMV infection: Reduces Acute LCMV Infection; also recorded: decreased the total number of cells infected and the amount of virus being produced
Influenza A/WSN/33 virus
  influenza virus infection (reporter activation): Inhibits Entry of Influenza virus; also recorded: completely inhibited infection; also recorded: partial protection
Acidic compartments
  cell-associated Lysotracker Red fluorescence (neutralization of acidic compartments): Does Not Neutralize Acidic Compartments; also recorded: did not reduce
EGFR
  EGFR degradation at early times post EGF stimulation: Slows EGFR-Degradation at 15 Minutes; also recorded: significantly less EGFR degraded at 30 min
EGF
  EGF retention in EEA1-positive endosomes: Results in EGF Retention in EEA1+ Endosomes; also recorded: retained in enlarged endosomes
  stabilization of EGF: stabilized EGF up to 60 min
Transferrin (Tf)
  transferrin recycling to the cell surface: Does Not Inhibit Transferrin Receptor Recycling to the Plasma Membrane; also recorded: had no affect
THP-1 cells
  trafficking of Texas-red dextran to phagosomes: Does Not Block Texas Red-Dextran Trafficking to Phagosomes; also recorded: Neither EGA nor bafilomycin A1 inhibited
F. tularensis LVS
  phagocytic uptake of F. tularensis LVS: Does Not Block Phagocytic Uptake of F. tularensis; also recorded: Neither EGA nor bafilomycin A1 blocked
HdCDT
  HdCDT localization in EEA-1-positive vesicles: Traps HdCDT in Enlarged EEA-1-Positive Vesicles
  cytotoxicity induced by Hd-CDT: Inhibits cytotoxicity induced by Hd-CDT
EcCDT
  intoxication (cell cycle arrest) by EcCDT: did not inhibit intoxication
LT
  tolerability: well tolerated in rats
